Measurements: patent publication US12195482B1 (Arcus Biosciences, Inc., priority 2022, dated 2025)

Key:
Axl = biological target: T1, Axl (Homo sapiens, UniProt P30530); assay: Biochemical potency, HTRF KinEASE-TK kinase assay; parameters: purchased Invitrogen; conditions: 5 nM AXL, 700 μM ATP
T1 sequence (P30530 26-894): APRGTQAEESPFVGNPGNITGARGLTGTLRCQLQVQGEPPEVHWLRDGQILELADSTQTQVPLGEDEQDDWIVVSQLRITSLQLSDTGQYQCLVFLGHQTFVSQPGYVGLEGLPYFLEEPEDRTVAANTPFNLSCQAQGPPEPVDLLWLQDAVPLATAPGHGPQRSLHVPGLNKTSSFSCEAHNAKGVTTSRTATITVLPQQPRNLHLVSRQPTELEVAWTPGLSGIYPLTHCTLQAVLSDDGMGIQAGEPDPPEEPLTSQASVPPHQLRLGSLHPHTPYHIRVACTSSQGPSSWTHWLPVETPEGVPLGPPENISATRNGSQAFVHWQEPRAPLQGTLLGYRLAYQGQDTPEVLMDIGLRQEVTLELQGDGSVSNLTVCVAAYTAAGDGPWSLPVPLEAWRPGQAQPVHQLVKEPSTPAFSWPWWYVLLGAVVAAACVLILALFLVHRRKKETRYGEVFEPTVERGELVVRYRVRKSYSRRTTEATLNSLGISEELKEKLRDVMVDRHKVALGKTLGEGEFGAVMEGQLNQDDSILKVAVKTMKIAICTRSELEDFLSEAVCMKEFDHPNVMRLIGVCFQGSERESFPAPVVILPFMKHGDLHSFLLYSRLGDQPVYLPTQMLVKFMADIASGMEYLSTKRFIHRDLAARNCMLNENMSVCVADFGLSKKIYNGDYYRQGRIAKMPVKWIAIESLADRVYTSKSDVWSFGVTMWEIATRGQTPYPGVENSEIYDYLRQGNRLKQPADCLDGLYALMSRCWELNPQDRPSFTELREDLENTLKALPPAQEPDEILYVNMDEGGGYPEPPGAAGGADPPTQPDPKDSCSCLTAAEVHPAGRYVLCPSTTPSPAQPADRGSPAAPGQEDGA
Protocol: Measurement of Biochemical Compound Potency of Axl Inhibitors
Purified recombinant human AXL, TYRO3 and MER proteins were purchased from Invitrogen™. 10 nM AXL, 2 nM TYRO3 or MER were incubated with varying concentrations of compounds in 50 mM HEPES, pH 7.4, 10 mM MgCl2, 0.01% BSA, 1 mM DTT and 2% DMSO in a total volume of 20 μl in a 384-well microplate (Corning™ #3640) at RT for 1 h. The AXL, TYRO3 and MER enzymatic reaction was initiated by transferring 10 μl of enzyme and compound mixture into 10 μl of 1.6 μM TK Substrate-biotin (HTRF® KinEASE-TK kit, Cisbio) and 1400 μM ATP pre-incubated in 50 mM HEPES, pH 7.4, 10 mM MgCl2, 0.01% BSA, 1 mM DTT in a 384-well microplate (Corning™ #3640) at RT, giving the final reaction conditions: 5 nM AXL, 1 nM TYRO3 or MER, 800 nM TK Substrate-biotin and 700 μM ATP in 50 mM HEPES, pH 7.4, 10 mM MgCl2, 0.01% BSA, 1 mM DTT and 1% DMSO with varying concentrations of compounds. Following 2 h incubation at RT, the AXL, TYRO3 and MER enzymatic reaction was stopped by transfer of 10 μl of reaction into 10 μl of detection mix (400 nM Streptavidin-XL665, 200-fold dilution TK Antibody-Cryptate and detection buffer, HTRF® KinEASE-TK kit, Cisbio) in a white 384-well microplate (Perkin Elmer, OptiPlate 384). After 1 h incubation at RT, the plate was put into a plate reader (Evision) to read at 665/620 nm (acceptor/donor) for HTRF. The value of the DMSO blank (MIN inhibition=100% activity) was used as a negative control. The positive control was established by adding 5 μl of enzyme and DMSO mixture into 10 μl of detection mix followed by addition of 5 μl of TK Substrate-biotin and ATP mixture (MAX inhibition=0% activity). To calculate the percent activity, Equation 1 was used. Ratio665/620 is the value at a given compound concentration: […]

p-AXL = biological target: T2, p-AXL (Homo sapiens, UniProt P30530); assay: Axl phosphorylation inhibition ELISA in HEK293T cells transfected with NanoLuc-tagged AXL; type: cell-based; conditions: 1 h compound incubation, media (OptiMEM)
T2 construct: expressed in transfected cells; host or cells: HEK293T
T2 sequence (P30530 26-894): T1 sequence (P30530 26-894)
Protocol: [formula] Measurement of Axl Phosphorylation Inhibition
The dose-response assays were performed in S-Bio PrimeSurface® 3D culture: Ultra-low Attachment Plates: 384 well, U bottom (#MS-9384UZ) containing 400 nL of 22 serial 2-fold compound dilutions using Bravo and Echo. ELISA assay was performed on Pierce™ streptavidin coated high capacity 384-well white plates (Thermofisher Cat #15505). The plates were coated overnight at 4° C. with 50 μl/well of biotinlyated phospho-tyrosine mouse mAb (Cell Signaling Technology, 9417s).
HEK293T cells were grown in DMEM containing 10% FBS, 1% Pen/Strep, 1% G-Max. A day before the assay, cells were transiently transfected with 6.8 μg of NanoLuc-tagged AXL plasmid DNA and 8 μg of carrier DNA using FuGENE® HD Transfection Reagent (Promega) according to manufacturer's instructions. On the day of the assay, transfected cells were harvested and resuspended in OptiMEM. 70,000 cells/well were added to the compounds containing assay plates. After a gentle mix and a short spin, the plates were incubated at 37° C. After 1 h, the cells were lysed followed by a brief centrifugation and 30 min of shaking at 300 rpm. Meanwhile, the antibody coated plates were brought to room temperature and then were washed ten times in PBS with 0.05% Tween 20 (ELISA-wash buffer). 50 μl/well of cell lysate was transferred to the ELISA plates and shaken for 2 hours. After washing again with the ELISA wash buffer, the samples were diluted with 25 μl of PBS. The captured NanoLuc tagged p-AXL was detected using Nano-Glo® Luciferase Assay System (Promega) and manufacturer's instruction. The luminescence signal was measured using Envision plate reader. IC50 values were determined by fitting the data to a standard 4-parameter logistic equation.

Row | IC50 (Axl) | IC50 (p-AXL) | SMILES
1 | < 100 nM | < 100 nM | Cc1cnc(C)c(-c2ccc(-c3n[nH]c4ncc(-c5ccc6c(c5)CC[C@@](C)(N5CCC[C@H]5C)CC6)cc34)cc2)n1 [Example 64, 2,5-Dimethyl-3-(4-{5-[(7S)-7-methyl-7-[(2R)-2-methylpyrrolidin-1-yl]-6,7,8,9-tetrahydro-5H-benzo[7]annulen-2-yl]-1H-pyrazolo[3,4-b]pyridin-3-yl}phenyl)pyrazine]
2 | < 100 nM | < 100 nM | Cc1cnc(C)c(-c2ccc(-c3n[nH]c4ncc(-c5ccc6c(c5)CC[C@@H](N5C7COCC5C7)CC6)cc34)cc2)n1 [Example 65, 6-[(7S)-2-{3-[4-(3,6-Dimethylpyrazin-2-yl)phenyl]-1H-pyrazolo[3,4-b]pyridin-5-yl}-6,7,8,9-tetrahydro-5H-benzo[7]annulen-7-yl]-3-oxa-6-azabicyclo[3.1.1]heptane]
3 | < 100 nM | < 100 nM | C[C@@H]1CCCN1[C@@]1(C)CCc2ccc(-c3cnc4[nH]nc(-c5ccc(-c6ncccc6C#N)cc5)c4c3)cc2CC1 [Example 66, 2-(4-{5-[(7S)-7-Methyl-7-[(2R)-2-methylpyrrolidin-1-yl]-6,7,8,9-tetrahydro-5H-benzo[7]annulen-2-yl]-1H-pyrazolo[3,4-b]pyridin-3-yl}phenyl)pyridine-3-carbonitrile]
4 | < 100 nM | 100 to 1000 nM | Cc1cccnc1-c1ccc(-c2n[nH]c3ncc(-c4ccc5c(c4)CC(N4CCCC4)CC5)cc23)cc1 (stereo not shown) [Example 67, 3-Methyl-2-(4-{5-[7-(pyrrolidin-1-yl)-5,6,7,8-tetrahydronaphthalen-2-yl]-1H-pyrazolo[3,4-b]pyridin-3-yl}phenyl)pyridine]
5 | < 100 nM | < 100 nM | Cc1cnc(C)c(-c2ccc(-c3c[nH]c4ncc(-c5ccc6c(c5)CC[C@@](C)(N5CCC[C@H]5C)CC6)cc34)nc2)n1 [Example 68, 2,5-Dimethyl-3-(6-{5-[(7S)-7-methyl-7-[(2R)-2-methylpyrrolidin-1-yl]-6,7,8,9-tetrahydro-5H-benzo[7]annulen-2-yl]-1H-pyrrolo[2,3-b]pyridin-3-yl}pyridin-3-yl)pyrazine]
6 | < 100 nM | 100 to 1000 nM | Cc1cnc(C)c(-c2ccc(-c3c[nH]c4ncc(-c5ccc6c(c5)CC[C@@H](N5C7COCC5C7)CC6)cc34)nc2)n1 [Example 69, 6-[(7S)-2-{3-[5-(3,6-Dimethylpyrazin-2-yl)pyridin-2-yl]-1H-pyrrolo[2,3-b]pyridin-5-yl}-6,7,8,9-tetrahydro-5H-benzo[7]annulen-7-yl]-3-oxa 6-azabicyclo[3.1.1]heptane]
7 | < 100 nM | < 100 nM | Cc1ccc(C#N)c(-c2ccc(-c3n[nH]c4ncc(-c5ccc6c(c5)CC[C@@H](N5C7COCC5C7)CC6)cc34)cc2)n1 [Example 70, 6-Methyl-2-(4-{5-[(7S)-7-{3-oxa-6-azabicyclo[3.1.1]heptan-6-yl}-6,7,8,9-tetrahydro-5H-benzo[7]annulen-2-yl]-1H-pyrazolo[3,4-b]pyridin-3-yl}phenyl)pyridine-3-carbonitrile]
8 | < 100 nM | < 100 nM | Cc1ccc(C#N)c(-c2ccc(-c3n[nH]c4ncc(-c5ccc6c(c5)CC[C@@](C)(N5CCC[C@H]5C)CC6)cc34)cc2)n1 [Example 71, 6-Methyl-2-(4-{5-[(7S)-7-methyl-7-[(2R)-2-methylpyrrolidin-1-yl]-6,7,8,9-tetrahydro-5H-benzo[7]annulen-2-yl]-1H-pyrazolo[3,4-b]pyridin-3-yl}phenyl)pyridine-3-carbonitrile]
9 | < 100 nM | 100 to 1000 nM | Cc1ccc(C#N)c(-c2ccc(-c3c[nH]c4ncc(-c5ccc6c(c5)CC[C@@H](N5C7COCC5C7)CC6)cc34)cc2)n1 [Example 72, 6-Methyl-2-(4-{5-[(7S)-7-{3-oxa-6-azabicyclo[3.1.1]heptan-6-yl}-6,7,8,9-tetrahydro-5H-benzo[7]annulen-2-yl]-1H-pyrrolo[2,3-b]pyridin-3-yl}phenyl)pyridine-3-carbonitrile]
10 | < 100 nM | 100 to 1000 nM | Cc1ccc(-c2ccc(-c3c[nH]c4ncc(-c5ccc6c(c5)CC[C@@H](N5C7COCC5C7)CC6)cc34)cc2)c(C)n1 [Example 73, 6-[(7S)-2-{3-[4-(2,6-Dimethylpyridin-3-yl)phenyl]-1H-pyrrolo[2,3-b]pyridin-5-yl}-6,7,8,9-tetrahydro-5H-benzo[7]annulen-7-yl]-3-oxa-6-azabicyclo[3.1.1]heptane]
11 | < 100 nM | 100 to 1000 nM | Cc1ncccc1-c1ccc(-c2c[nH]c3ncc(-c4ccc5c(c4)CC[C@@H](N4C6COCC4C6)CC5)cc23)cc1 [Example 74, 6-[(7S)-2-{3-[4-(2-Methylpyridin-3-yl)phenyl]-1H-pyrrolo[2,3-b]pyridin-5-yl}-6,7,8,9-tetrahydro-5H-benzo[7]annulen-7-yl]-3-oxa-6-azabicyclo[3.1.1]heptane]
12 | < 100 nM | < 100 nM | Cc1ccc(C#N)nc1-c1ccc(-c2c[nH]c3ncc(-c4ccc5c(c4)CC[C@@H](N4C6COCC4C6)CC5)cc23)cc1 [Example 75, 5-Methyl-6-(4-{5-[(7S)-7-{3-oxa-6-azabicyclo[3.1.1]heptan-6-yl}-6,7,8,9-tetrahydro-5H-benzo[7]annulen-2-yl]-1H-pyrrolo[2,3-b]pyridin-3-yl}phenyl)pyridine-2-carbonitrile]
13 | < 100 nM | < 100 nM | Cc1ccc(C(N)=O)nc1-c1ccc(-c2c[nH]c3ncc(-c4ccc5c(c4)CC[C@@H](N4C6COCC4C6)CC5)cc23)cc1 [Example 76, 5-Methyl-6-(4-{5-[(7S)-7-{3-oxa-6-azabicyclo[3.1.1]heptan-6-yl}-6,7,8,9-tetrahydro-5H-benzo[7]annulen-2-yl]-1H-pyrrolo[2,3-b]pyridin-3-yl}phenyl)pyridine-2-carboxamide]
14 | < 100 nM | < 100 nM | Cc1cccnc1-c1cccc(-c2n[nH]c3ncc(-c4ccc5c(c4)CC[C@@H](N4C6COCC4C6)CC5)cc23)c1 [Example 81, 6-[(7S)-2-{3-[3-(3-Methylpyridin-2-yl)phenyl]-1H-pyrazolo[3,4-b]pyridin-5-yl}-6,7,8,9-tetrahydro-5H-benzo[7]annulen-7-yl]-3-oxa-6-azabicyclo[3.1.1]heptane]
